Experimental data: paper PMC10619133, “The catechol moiety of obafluorin is essential for antibacterial activity” (RSC Chemical Biology, 2023)
In brackets after ≈: the same amount, converted by molar mass. Entries after “also recorded” stand apart in the source; their conditions may differ. Read-outs that look alike come from different tables or passages of the source.

What was measured:
[1] = tested on: B. subtilis; test: Spot-on-lawn MIC bioassay; type: cell-based, B. subtilis EC 1524; details: Bacillus subtilis
Description: (§1) Indicator strains were grown for 16–18 h in LB (5 mL) by inoculation from a single colony. An aliquot of the resulting culture (500 μL) was then used to inoculate LB (50 mL in 250 mL Erlenmeyer flasks), followed by orbital shaking at 250 rpm until they reached an OD600 of 0.3–0.4. These cultures were then diluted 1 : 10 with molten soft nutrient agar (SNA), before pouring into appropriately sized Petri dishes to set. Serial dilutions of the test compounds (from 256 μg mL^−1 to 1 μg mL^−1 plus an additional sample at 1000 μg mL^−1) were prepared in acetonitrile (ACN), and 4 μL of each sample was applied directly onto the SNA surface. Kanamycin (50 μg mL^−1), apramycin (50 μg mL^−1) or aureobasidin A (0.2 μg mL^−1) were used as positive controls, as appropriate, and ACN or water (4 μL) were used as negative controls. […] Experiments were carried out in at least triplicate for each strain.

[2] = tested on: E. coli 25922; test: Spot-on-lawn MIC bioassay; type: cell-based, E. coli ATCC 25922; details: for MIC: Escherichia coli, 25922, spot-on-lawn; for lowest concentration which gave an inhibition zone: - Fe3+
Description: as §1
(§2) The method was the same as for the antibacterial MIC assays described above, with the following modifications: for excess iron, Fe(NO3)3·9H2O stock (400 mM) was added to give a final concentration of 1.5 or 2.0 mM; for iron depletion, bipy stock (1 M) was added to give a final concentration of 150 μM. For MRSA, 1 was further diluted to 0.5 0.25 and 0.125 μg mL^−1 due to a decrease in MIC under excess iron conditions. The general effect of excess iron on the activity of alternative antibiotics was determined by performing a similar serial dilution of carbenicillin, kanamycin, streptomycin, nitrofurantoin and chloramphenicol in the presence of Fe^3+.

[3] = molecular target: PfThrRS (Pseudomonas fluorescens, UniProt C3JZN7); test: Aminoacylation assay; type: biochemical, P. fluorescens; details: for IC100: read-out: concentration of full inhibition
Description: (§3) To measure the effects of 1–4 on ThrRS canonical tRNA charging activity, an assay modified from that reported by Ruan et al.[53] was used, where active enzyme was incubated with its necessary substrates and its activity measured using ^14C labeled Thr and a liquid scintillation counter. Purified ThrRS protein (10 nM) was pre-incubated with varying concentrations of compounds 1–4 or ACN for 10 min. After pre-incubation, ThrRS samples were added to a master reaction mixture with the final component concentrations of HEPES (100 mM, pH 7.0), ATP (4 mM), MgCl2 (10 mM), L-[U-^14C]threonine (50 μM, Moravek Inc.), and tRNA^Thr (5 μM). This mixture was incubated at room temperature for 10 min, with samples taken at 1, 2.5, 5, and 10 min. At each time point, a 7 μL aliquot was spotted onto a 5% trichloroacetic acid (TCA) presoaked 3 MM Whatman paper (Cytiva) squares (repeated in triplicate). After allowing the spots to dry, the Whatman paper was washed three times with 5% TCA, and once with 95% EtOH. The Whatman paper was dried and the counts on each square of paper analyzed using a Tri-Carb 2910 TR liquid scintillation counter using Hydrofluor Liquid Scintillation Fluid (National Diagnostics). To calculate IC50 values, fractional initial velocities (velocity of inhibited reaction/velocity in the absence of inhibitor) were plotted against the log of 1 concentration and then fitted to eqn (1), using GraphPad Prism.1 [drawing 1]

[4] = tested on: MRSA; test: Spot-on-lawn MIC bioassay; type: cell-based, Methicillin-resistant Staphylococcus aureus; details: spot-on-lawn; for MIC: Staphylococcus aureus, MRSA; for antibacterial activity (in words): Fig. S13
Description: as §1, §2

[5] = tested on: E. coli NR698; test: Spot-on-lawn MIC bioassay; type: cell-based; details: Escherichia coli
Description: as §1

[6] = tested on: S. cerevisiae; test: Spot-on-lawn MIC bioassay; type: cell-based, S. cerevisiae NCYC 2939; details: Saccharomyces cerevisiae
Description: as §1

[7] = molecular target: T1, EcThrRS (Escherichia coli, UniProt P0A8M3); test: Aminoacylation assay; type: biochemical, E. coli; details: for concentration at which complete inhibition was observed / IC50: enzyme 10 nM; for IC50: 10 min preincubation with compound; for fold less potent than 1: ratio of IC50 values
T1 construct: His6 (N); made in house; host or cells: E. coli NiCo21(DE3)
Description: as §3

[8] = Hydrolysis of the β-lactone in HEPES buffer monitored by HPLC; type: physicochemical; details: for effect of added Fe^3+ on hydrolysis (in words): Fe^3+ 1 mM, HEPES 100 mM, pH 6.0–8.0, 30 min; for hydrolysis of β-lactone (in words): pH 8.0, HEPES 100 mM, 30 min, no Fe^3+
Description: Hydrolysis of 1–4 was analysed on an Agilent 1290 system fitted with an Agilent LC/MSD MS spectrometer. A Kinetex XB-C18, 100 × 4.6 mm, 5 μM column (Phenomenex) was used with a gradient elution: ACN/0.1% (v/v) FA (H2O) gradient from 5/95 for 0–0.5 min, 5/95 to 98/2 0.5–12 min, 98/2 for 12–13 min, gradient to 5/95 13–13.5 min and 5/95 for 13.5–15 min. The flow rate was 0.6 mL min^−1 and the injection volume of each sample 5 μL. DAD signals were analysed at 270 nm, with a bandwidth of 4 nm. MS were recorded in positive mode using an atmospheric pressure ionisation electrospray (API-ES) ion source with a capillary voltage of 3000 V. The drying gas temperature was 350 °C with a flow rate of 12 L min^−1. The scan parameters were: mass range = 200–1500; fragmentor = 70; gain EMV = 1.0; threshold = 150; step-size = 0.10. Data were analysed with Agilent ChemStation software.
Five solutions of HEPES buffer (111 mM) were prepared at pH 6.0, 6.5, 7.0, 7.5 and 8.0 respectively. A further five solution of HEPES buffer (111 mM) with Fe(NO3)3.9H2O ([…]) were also prepared at pH 6.0, 6.5, 7.0, 7.5, 8.0 respectively. Stock solutions of 1–4 (10 mM) were prepared in DMSO. For each hydrolysis experiment, stock solution of 1–4 (10 μL) was added the HEPES buffer (90 μL) or the HEPES + Fe(NO3)3.9H2O buffer (90 μL), to give final concentrations of HEPES (100 mM), 1–4 (1 mM) and Fe^3+ (0 or 1 mM). The reaction mixtures were shaken using a bench top vortex and left to stand for 30 min, after which the samples were analysed by HPLC using the Analytical HPLC method. All stock solutions of 1–4 were tested at every pH, with and without Fe^3+ and all experiments were repeated in triplicate.

[9] = tested on: S. aureus; test: Bioassay of control antibiotics with and without additional Fe3+; type: cell-based
Description: as §2

[10] = Figure S9 legend, read-out: Minimum inhibitory concentration
[11] = standard conditions, read-out: MIC
[12] = Figure S10 legend, read-out: Minimum inhibitory concentration
[13] = Figure S8 legend, read-out: Minimum inhibitory concentration
[14] = NR698, read-out: Minimum inhibitory concentration
[15] = Figure S12 legend, read-out: Minimum inhibitory concentration

T1 sequence (P0A8M3 whole entry): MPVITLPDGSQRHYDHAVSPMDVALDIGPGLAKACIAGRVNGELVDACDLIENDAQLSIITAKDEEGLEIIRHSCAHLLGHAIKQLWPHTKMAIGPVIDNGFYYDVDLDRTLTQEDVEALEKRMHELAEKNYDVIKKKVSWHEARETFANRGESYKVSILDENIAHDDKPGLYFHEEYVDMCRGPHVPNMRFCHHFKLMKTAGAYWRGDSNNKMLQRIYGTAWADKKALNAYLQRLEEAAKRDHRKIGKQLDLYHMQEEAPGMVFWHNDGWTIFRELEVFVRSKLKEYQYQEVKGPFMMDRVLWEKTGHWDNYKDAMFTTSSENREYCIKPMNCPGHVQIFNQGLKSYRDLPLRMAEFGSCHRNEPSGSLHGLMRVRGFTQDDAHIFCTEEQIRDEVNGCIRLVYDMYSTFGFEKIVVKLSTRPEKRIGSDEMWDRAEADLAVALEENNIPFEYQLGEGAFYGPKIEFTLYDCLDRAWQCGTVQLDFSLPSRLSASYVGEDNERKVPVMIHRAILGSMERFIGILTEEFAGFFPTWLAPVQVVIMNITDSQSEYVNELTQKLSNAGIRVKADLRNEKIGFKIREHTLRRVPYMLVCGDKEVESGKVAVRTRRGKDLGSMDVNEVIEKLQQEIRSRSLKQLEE
Chain of PfThrRS (C3JZN7 whole entry): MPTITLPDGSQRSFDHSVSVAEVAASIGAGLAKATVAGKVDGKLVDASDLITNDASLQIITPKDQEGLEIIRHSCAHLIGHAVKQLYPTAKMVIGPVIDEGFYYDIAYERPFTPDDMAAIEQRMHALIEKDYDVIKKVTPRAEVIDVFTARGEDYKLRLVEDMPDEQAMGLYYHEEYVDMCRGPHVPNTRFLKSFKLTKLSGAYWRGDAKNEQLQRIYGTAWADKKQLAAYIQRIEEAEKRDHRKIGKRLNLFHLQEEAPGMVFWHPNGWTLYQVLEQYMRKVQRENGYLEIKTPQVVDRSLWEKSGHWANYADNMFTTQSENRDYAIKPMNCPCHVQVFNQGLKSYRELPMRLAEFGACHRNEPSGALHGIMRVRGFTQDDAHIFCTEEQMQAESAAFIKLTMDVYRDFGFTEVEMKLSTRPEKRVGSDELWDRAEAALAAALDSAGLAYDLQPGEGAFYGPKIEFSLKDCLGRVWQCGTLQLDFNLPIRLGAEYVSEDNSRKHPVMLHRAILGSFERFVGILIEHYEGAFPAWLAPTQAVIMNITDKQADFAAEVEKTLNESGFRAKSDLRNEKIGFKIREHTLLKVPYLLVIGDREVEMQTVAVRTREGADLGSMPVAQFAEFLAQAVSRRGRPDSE

O=C(N[C@@H]1C(=O)O[C@@H]1Cc1ccc([N+](=O)[O-])cc1)c1ccccc1O [compound 2, 2-HBA-obafluorin]
MIC [1, 10]: 1000 µg/mL (≈ 2920 µM)
MIC [1, 11]: 1000 µg/mL (≈ 2920 µM)
MIC [2, 12]: > 1000 µg/mL
MIC [2, 11]: > 1000 µg/mL
IC100 ([3]; enzyme 10 nM): 10 µM
MIC [4, 13]: 1000 µg/mL (≈ 2920 µM)
MIC [4, 11]: > 1000 µg/mL
MIC ([5]; NR698): 1000 µg/mL (≈ 2920 µM)
MIC [5, 14]: > 1000 µg/mL
MIC [6, 15]: > 1000 µg/mL
MIC [6, 11]: > 1000 µg/mL
concentration at which complete inhibition was observed [7]: 10 000 nM
IC50 ([7]; read-out: IC50): 3700 ± 700 nM
fold less potent than 1 [7]: approximately 100 fold
effect of added Fe^3+ on hydrolysis (in words) [8]: no effect
hydrolysis of β-lactone (in words) [8]: mainly hydrolysed

O=C(N[C@@H]1C(=O)O[C@@H]1Cc1ccc([N+](=O)[O-])cc1)c1ccccc1 [compound 4, BA-obafluorin]
MIC [1, 10]: > 1000 µg/mL
MIC [1, 11]: > 1000 µg/mL
MIC [2, 12]: > 1000 µg/mL
MIC [2, 11]: > 1000 µg/mL
IC50 ([3]; enzyme 10 nM, 10 min preincubation with compound): not inhibited; also recorded: No inhibition
inhibition of aminoacylation (in words) ([3]; up to 25000 nM): no significant inhibition
MIC [4, 13]: > 1000 µg/mL
MIC [4, 11]: 1000 µg/mL (≈ 3060 µM)
MIC ([5]; NR698): > 1000 µg/mL
MIC [5, 14]: > 1000 µg/mL
MIC [6, 15]: > 1000 µg/mL
MIC [6, 11]: > 1000 µg/mL
IC50 [7]: No inhibition
inhibition of aminoacylation (in words) ([7]; up to the highest concentration tested (0–25 μM)): no significant inhibition
hydrolysis of β-lactone (in words) [8]: no hydrolysis; also recorded: stable to hydrolysis

O=C1CN(/N=C/c2ccc([N+](=O)[O-])o2)C(=O)N1 [Nitrofurantoin, nitrofurantoin, reference compound]
lowest concentration which gave an inhibition zone [9]: 500 µg/mL
lowest concentration which gave an inhibition zone [2]: 500 µg/mL

COC(=O)[C@@H](NC(=O)c1cccc(O)c1O)[C@H](O)Cc1ccc([N+](=O)[O-])cc1 [compound 6, β-lactone methanolysed obafluorin]
antibacterial activity (in words) [4]: inactive

NC[C@H]1O[C@H](O[C@H]2[C@H](O)[C@@H](O[C@H]3O[C@H](CO)[C@@H](O)[C@H](N)[C@H]3O)[C@H](N)C[C@@H]2N)[C@H](O)[C@@H](O)[C@@H]1O [Kanamycin, kanamycin, reference compound]
lowest concentration which gave an inhibition zone [9]: 50 µg/mL
lowest concentration which gave an inhibition zone [2]: 50 µg/mL

O=C(N[C@H](C(=O)O)[C@H](O)Cc1ccc([N+](=O)[O-])cc1)c1cccc(O)c1O [compound 5, β-lactone hydrolysed obafluorin]
antibacterial activity (in words) [4]: inactive

CC1(C)S[C@@H]2[C@H](NC(=O)C(C(=O)O)c3ccccc3)C(=O)N2[C@H]1C(=O)O (some centres unmarked) [Carbenicillin, carbenicillin, reference compound]
lowest concentration which gave an inhibition zone [9]: 50 µg/mL
lowest concentration which gave an inhibition zone [2]: 1000 µg/mL

O=C(N[C@H](CO)[C@H](O)c1ccc([N+](=O)[O-])cc1)C(Cl)Cl [Chloramphenicol, chloramphenicol, reference compound]
lowest concentration which gave an inhibition zone [9]: 1000 µg/mL
lowest concentration which gave an inhibition zone [2]: 1000 µg/mL

CN[C@@H]1[C@@H](O[C@H]2O[C@H](CO)[C@@H](N)[C@H](O)[C@H]2O)OC2C[C@@H](N)[C@@H](O[C@H]3[C@H](O)[C@@H](O)[C@H](N)C[C@@H]3N)OC2[C@@H]1O (some centres unmarked) [Apramycin, apramycin, reference compound]
lowest concentration which gave an inhibition zone [9]: 50 µg/mL
lowest concentration which gave an inhibition zone [2]: 50 µg/mL

O=C(N[C@H](C(=O)O)[C@H](O)Cc1ccc([N+](=O)[O-])cc1)c1ccccc1 [compound 7, β-lactone hydrolysed BA-obafluorin]
antibacterial activity (in words) [4]: inactive

[H]/N=C(/N)N[C@H]1[C@H](O)[C@@H](O)[C@H](O[C@@H]2O[C@@H](C)[C@](O)(C=O)[C@H]2O[C@@H]2O[C@@H](CO)[C@H](O)[C@@H](O)[C@@H]2NC)[C@@H](N/C(N)=N\[H])[C@@H]1O [Streptomycin, streptomycin, reference compound]
lowest concentration which gave an inhibition zone [9]: 50 µg/mL
lowest concentration which gave an inhibition zone [2]: 50 µg/mL

O=C(N[C@@H]1C(=O)O[C@@H]1Cc1ccc([N+](=O)[O-])cc1)c1cccc(O)c1 [compound 3, 3-HBA-obafluorin]
MIC [1, 10]: 1000 µg/mL (≈ 2920 µM)
MIC [1, 11]: 1000 µg/mL (≈ 2920 µM)
MIC [2, 12]: > 1000 µg/mL
MIC [2, 11]: > 1000 µg/mL
IC100 ([3]; enzyme 10 nM): 5 µM
MIC [4, 13]: 1000 µg/mL (≈ 2920 µM)
MIC [4, 11]: 1000 µg/mL (≈ 2920 µM)
MIC ([5]; NR698): > 1000 µg/mL
MIC [5, 14]: > 1000 µg/mL
MIC [6, 15]: > 1000 µg/mL
MIC [6, 11]: > 1000 µg/mL
concentration at which complete inhibition was observed [7]: 5000 nM
IC50 ([7]; read-out: IC50): 930 ± 80 nM
fold less potent than 1 [7]: ~30 fold
effect of added Fe^3+ on hydrolysis (in words) [8]: no effect
hydrolysis of β-lactone (in words) [8]: mainly hydrolysed
